Data set [1] in a line: Representative Profile in Monkeys Intravenously Delivered. The source says:
Table printed on a drawing sheet, FIG. 2
Title: Representative Profile in Monkeys Intravenously Delivered

Data set [2] in a line: Profiles in Monkeys Intranasally Delivered. From the text:
Table printed on a drawing sheet, FIG. 3
Title: Profiles in Monkeys Intranasally Delivered
First reader's note: Columns 2001, 2002 and 2003 are individual monkeys, and the last two columns are their mean and SEM; the substance name is taken from the y-axis label, printed 'Compopund 1'.

In data set [3] the test system is Sprague Dawley rats. As to the kind of experiment: Induction of penile erection by intranasal administration. In kind it is in vivo, rat. The note with it: for % Rats with Penile Erection / Number of Erections/Rat/30 Minutes: intranasal. Here is the method:
In another series of experiments, a dosing study was conducted in rats by nasal administration of from 15 μg per kg of body weight to 1500 μg per kg of body weight, using Nasal Formulation 1. Based on penile erectile response behavior, the peptide was efficacious at all dose amounts administered, and particularly from 25 μg/kg to 75 μg/kg, with pharacologic effect observed over the range from 15 μg/kg to 1500 μg/kg. […]

For the next data set, the system named is ferrets. As to the kind of experiment: Ferret emesis study. The settings on record: animals out of six. In kind it is in vivo. The source says: Ferrets are a recognized model for emetic studies. The vehicle for both intravenous and intranasal administration was saline. The positive control was cisplatin, known to induce vomiting in ferrets. The data is described as the number of animals out of a group of six showing signs of vomiting.

Data set [4] relates to Female Long-Evans rats. Briefly: Female sexual response, bilevel chambers. The note with it: 200 μg/kg subcutaneous. In kind it is in vivo, rat. Here is the method:
Female Long-Evans rats (200-250 g) were house in groups of 2 to 4 depending on size in plastic cages in a colony room maintained on a reversed 12:12 hour light/dark cycle at approximately 21° C. with food and water ad libitum. The rats were ovariectomized bilaterally via lumbar incisions one week prior to preliminary tests of sexual behavior. Intact Long-Evans male rats served as stimulus males, and were sexual vigorous, initiating copulatory activity with females within 15 seconds of being placed into bilevel chambers containing female rats. Following preliminary tests of sexual behavior, females were administered subcutaneous injections of estradiol benzoate, 10 μg in 0.1 mL of sesame oil, forty-eight hours prior to testing, and progesterone, 500 μg in 0.1 mL of sesame oil, four hours prior to testing. Administration of estradiol benzoate and progesterone induced full sexual receptivity in the female rats. Female rats were placed in bilevel chambers five minutes prior to the introduction of a sexual vigorous male. […] Tests were videotaped and score subsequently for appetitive level changing during the five minute period prior to the introduction of the male, lordosis quotients and reflex magnitudes, incidents of solicitation (head-wise orientation and runaway), hops and darts, pacing (level changes per mount), female mounts and defensive responses. […]

Data set [5] relates to Sprague Dawley rats. Briefly: Inhibition of Compound 1-induced penile erection by melanocortin antagonist. In kind it is in vivo, rat. The settings on record: 25 or 50 μg/kg nasal in Nasal Formulation 1, control groups.
The nature of data set [6]: PROFILE IN RATS INTRAVENOUSLY ADMINISTERED
The source says: Table printed on a drawing sheet, FIG. 1
Title: PROFILE IN RATS INTRAVENOUSLY ADMINISTERED
Section band inside the table: i.v.

Data set [7] is described as follows: Pharmacokinetics in rats following IV administration. In kind it is in vivo, rat. The settings on record: intravenous 100 μg/kg, bioassay.
The subject of data set [8] is Sprague Dawley rats. As to the kind of experiment: Induction of penile erection by intravenous injection. The settings on record: for Dose resulting in equivalent penile response by intravenous injection / Efficacious dose (penile erection in 100% of animals): rats; for Efficacious dose (penile erection in 100% of animals): intravenous injection.
Data set [9] relates to Female Long-Evans rats. As to the kind of experiment: Female sexual response, unilevel pacing chambers. The note with it: 200 μg/kg subcutaneous. In kind it is in vivo, rat. From the text: Tests were videotaped and scored as in Example 13, with pacing defined as number of exits from and returns to the side with the male; and exist and return latencies following mounts, intromissions or ejaculations. FIGS. 8A, 8B, 8C and 8D show the results.

The test system of data set [10] is men with psychogenic erectile dysfunction. The note with it: subcutaneous, 0.025 to 0.157 mg/kg, cited from earlier work.

For `CCCC[C@H](NC(C)=O)C(=O)N[C@H]1CC(=O)NCCCC[C@@H](C(=O)O)NC(=O)[C@H](Cc2c[nH]c3ccccc23)NC(=O)[C@H](CCCNC(=N)N)NC(=O)[C@@H](Cc2ccccc2)NC(=O)[C@H](Cc2c[nH]cn2)NC1=O` [Compopund 1], in data set [1], the AUC (commonly concentration integrated over time) is 3730.0 ng·min/mL; the Cmax – broadly, the highest concentration seen after dosing – stood at 1149.0 ng/mL; the Tmax (usually the time at which the peak concentration occurs) came out at 0 h. Moreover, in [2], the “%Bioavailability” value was 0.73%, the “AUC” value came out at 27.16 ng·min/mL, the “Cmax” value is 0.38 ng/mL and the “Tmax” value is recorded as 50.00 min.

In the case of `CCCCC(NC(C)=O)C(=O)NC1CC(=O)NCCCCC(C(=O)O)NC(=O)C(Cc2c[nH]c3ccccc23)NC(=O)C(CCCNC(=N)N)NC(=O)C(Cc2ccccc2)NC(=O)C(Cc2c[nH]cn2)NC1=O` [Compound 1, Ac-Nle-cyclo(-Asp-His-D-Phe-Arg-Trp-Lys)-OH], the “% Rats with Penile Erection” value in the data set with Sprague Dawley rats [3] (15 μg/kg) is given as 50%; with Sprague Dawley rats [3] (25 μg/kg), 100%; with Sprague Dawley rats [3] (37 μg/kg) it was 100%; with Sprague Dawley rats [3] (50 μg/kg) it was 100%; in the data set on Sprague Dawley rats [3] (75 μg/kg), 100%; in the data set with Sprague Dawley rats [3] (500 μg/kg), 100%. The “% Rats with Penile Erection” value is 100% with Sprague Dawley rats [3] (1000 μg/kg); 50% in the data set with Sprague Dawley rats [3] (1500 μg/kg); 50% with Sprague Dawley rats [8] (intravenous, 0.5 μg/kg); 100% in the data set with Sprague Dawley rats [8] (intravenous, 1.0 μg/kg); 100% in the data set on Sprague Dawley rats [8] (intravenous, 2.0 μg/kg); 100% with Sprague Dawley rats [8] (intravenous, 5.0 μg/kg). Besides, in the data set on Sprague Dawley rats [8] (intravenous, 10.0 μg/kg), the “% Rats with Penile Erection” value is reported as 100%. Besides, the “Number of Erections/Rat/30 Minutes” value with Sprague Dawley rats [3] (15 μg/kg) amounted to 0.5; with Sprague Dawley rats [3] (25 μg/kg), 2.0; in the data set on Sprague Dawley rats [3] (37 μg/kg), 2.0; in the data set on Sprague Dawley rats [3] (50 μg/kg), 2.0; in the data set with Sprague Dawley rats [3] (75 μg/kg), 2.5; in the data set on Sprague Dawley rats [3] (500 μg/kg), 1.5. Also, the “Number of Erections/Rat/30 Minutes” value in the data set on Sprague Dawley rats [3] (1000 μg/kg) is recorded as 1.5; with Sprague Dawley rats [3] (1500 μg/kg), 0.5; with Sprague Dawley rats [8] (intravenous, 0.5 μg/kg) it was 0.5; in the data set on Sprague Dawley rats [8] (intravenous, 1.0 μg/kg) it was 1.0; in the data set with Sprague Dawley rats [8] (intravenous, 2.0 μg/kg), 2.0; in the data set with Sprague Dawley rats [8] (intravenous, 5.0 μg/kg), 1.8. Besides, the “Number of Erections/Rat/30 Minutes” value with Sprague Dawley rats [8] (intravenous, 10.0 μg/kg) amounted to 2.5. The “Signs of vomiting (proportions)” value is on record as 0/6 in the data set on ferrets (10 μg/kg IV); 6/6 with ferrets (30 μg/kg IV); 0/6 in the data set with ferrets (100 μg/kg IN); 6/6 with ferrets (100 μg/kg IV); 1/6 with ferrets (300 μg/kg IN); 1/6 with ferrets (500 μg/kg IN). In addition, the “Rates of appetitive level changing, pacing, lordosis, female mounts or rejection responses” value with Female Long-Evans rats [4] is “without affecting”. Besides, in the data set with Female Long-Evans rats [4] (fully and partially primed female rats), the Number of solicitations result is reported as “increased the number of solicitations significantly”. For the same compound, the “Rats with observed erections, without pre-administration of SHU9119” value in the data set on Sprague Dawley rats [5] was 100%. The α-phase in data set [6] is given as 5 min. This compound also registered a β-phase in data set [6] of 25 min. In addition, the “Pharmacokinetic profile in plasma” value in data set [7] was “bi-phasic”. In the data set on Sprague Dawley rats [8] (intravenous, 2 μg/kg, 30 minutes observation period), the “Rats having multiple erections” value is “approximately 50%”. Besides, the “Dose resulting in equivalent penile response by intravenous injection” value in the data set on Sprague Dawley rats [8] is on record as 2 μg/kg of body weight. In the data set on Sprague Dawley rats [8], the “Efficacious dose (penile erection in 100% of animals)” value worked out at 0.001 mg/kg. Moreover, the Ejaculation return latencies result in the data set with Female Long-Evans rats [9] is recorded as “increase”. Further, in the data set with Female Long-Evans rats [9], the “Lordosis or defensive responding” value is “no effect”. Moreover, the “Number of exits or returns made by the females” value with Female Long-Evans rats [9] is “no significant effect”. For the same compound, the “Number of solicitations, hops and darts, and female mounts compared to controls” value in the data set on Female Long-Evans rats [9] (fully primed) was “increased the number of solicitations, hops and darts, and female mounts significantly”.

With Melanotan-II [reference compound], the “% Rats with Penile Erection” value with Sprague Dawley rats [3] (100 μg/kg) is on record as 25%; with Sprague Dawley rats [3] (500 μg/kg), 100%; with Sprague Dawley rats [8] (intravenous, 10.0 μg/kg), 17%; with Sprague Dawley rats [8] (intravenous, 100.0 μg/kg), 75%. The “Number of Erections/Rat/30 Minutes” value in the data set with Sprague Dawley rats [3] (100 μg/kg) is 0.25; in the data set with Sprague Dawley rats [3] (500 μg/kg), 1.0; in the data set with Sprague Dawley rats [8] (intravenous, 10.0 μg/kg), 0.3; with Sprague Dawley rats [8] (intravenous, 100.0 μg/kg) it was 1.0. Besides, the “Period of the penile erection response after nasal administration” value with Sprague Dawley rats [3] (rats, 30 minute observation in ten-minute periods) was 2nd and 3rd ten-minute period. Also, the “Treated men developing clinically apparent erections” value in [10] is 8 of 10. Besides, in data set [10] (placebo 3.0 minutes), the “Mean duration of tip rigidity greater than 80%” value was 38 min. The “Optimal efficacious dose intravenously” value with Sprague Dawley rats [8] (rat model of penile erection) is recorded as 100 μg/kg of body weight. The “Dose resulting in equivalent penile response by intravenous injection” value in the data set with Sprague Dawley rats [8] is listed as 100 μg/kg of body weight. Further, the “Efficacious dose (penile erection in 100% of animals)” value with Sprague Dawley rats [8] was not below 0.1 mg/kg.
